In ChEMBL document CHEMBL1141816, “Massarinolins A-C: new bioactive sesquiterpenoids from the aquatic fungus massarina tunicata” (1999):
Calls of active or inactive are those of the source. No cut-off for these calls is given here.

Key:
[1] = system: Bacillus subtilis; assay: Antibacterial activity against Bacillus subtilis ATCC 6051 at 200 ug/disk by standard disk assay; assay type: functional; conditions: for zone of inhibition at 200 µg/disc: read-out: IZ
[2] = system: Candida albicans; assay: Antifungal activity against Candida albicans ATCC 14053 at 200 ug/disk by standard disk assay; assay type: functional, organism-based
[3] = system: Staphylococcus aureus; assay: Antibacterial activity against Staphylococcus aureus ATCC 29213 at 200 ug/disk by standard disk assay; assay type: functional

| SMILES | zone of inhibition at 200 µg/disc [1] [mm] | Activity [2] | Activity [1] | Activity [3] | zone of inhibition at 200 µg/disc ([3]; read-out: IZ) [mm] |
| --- | --- | --- | --- | --- | --- |
| C/C(=C\[C@@H](O)C[C@@]12CO[C@]3(C)CC[C@H]1C[C@H]23)C(=O)O [MASSARINOLIN B] | 8 | inactive |  |  |  |
| C=C1CC[C@H]2C[C@@H]1[C@]2(CO)C[C@H](O)/C=C(\C)C(=O)O |  | inactive | inactive | inactive |  |
| C=C1CC[C@H]2C[C@@H]1[C@@]21CO[C@]2(C=C(C)C(=O)O2)[C@H]1O [MASSARINOLIN A] | 17 | inactive |  |  | 10 |
